ChEMBL document CHEMBL1201862, “PubChem BioAssay data set” (2004)
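Results reflect a 48-hour exposure of cells in 96-well plates to compound at five concentrations. GI50 marks 50% less growth.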 Active and inactive are the calls of the source. Rule as the data show it: active = GI50 up to about 1.1 µM and inactive = higher.

Experiments:
Assay in all cases: NCI anticancer screen, dose series, 48 h
SF-539 = tested on: SF-539
RXF 393 = tested on: RXF 393
OVCAR-5 = tested on: OVCAR-5
LOX IMVI = tested on: LOX IMVI
HT-29 = tested on: HT-29
Hs-578T = tested on: Hs-578T
Malme-3M = tested on: Malme-3M
NCI-H23 = tested on: NCI-H23
HOP-62 = tested on: HOP-62
EKVX = tested on: EKVX
MCF7 = tested on: MCF7
KM12 = tested on: KM12
CCRF-CEM = tested on: CCRF-CEM
COLO 205 = tested on: COLO 205
HOP-92 = tested on: HOP-92
SK-OV-3 = tested on: SK-OV-3
CAKI-1 = tested on: CAKI-1
TK-10 = tested on: TK-10
NCI-H460 = tested on: NCI-H460
K562 = tested on: K562

| SMILES | GI50 (SF-539) | GI50 (RXF 393) | GI50 (OVCAR-5) | GI50 (LOX IMVI) | GI50 (HT-29) | GI50 (Hs-578T) | GI50 (Malme-3M) | GI50 (NCI-H23) | GI50 (HOP-62) | GI50 (EKVX) | GI50 (MCF7) | GI50 (KM12) | GI50 (CCRF-CEM) | GI50 (COLO 205) | GI50 (HOP-92) | GI50 (SK-OV-3) | GI50 (CAKI-1) | GI50 (TK-10) | GI50 (NCI-H460) | GI50 (K562) |
| --- | --- | --- | --- | --- | --- | --- | --- | --- | --- | --- | --- | --- | --- | --- | --- | --- | --- | --- | --- | --- |
| O=C(/C=C/c1ccccc1)OCC1=C[C@@H](O)[C@@H]2C=CO[C@@H](OC3OC(CO)C(O)C(O)C3O)[C@H]12 (stereo not given in full) | > 100 µM (inactive) | > 100 µM (inactive) | > 100 µM (inactive) | > 100 µM (inactive) | > 100 µM (inactive) | > 100 µM (inactive) | > 100 µM (inactive) | > 100 µM (inactive) | > 100 µM (inactive) | > 100 µM (inactive) | > 100 µM (inactive) | > 100 µM (inactive) | > 100 µM (inactive) | > 100 µM (inactive) | > 100 µM (inactive) | > 100 µM (inactive) | > 100 µM (inactive) | > 100 µM (inactive) |  |  |
| O=C(O)Cc1ccc(Nc2nc3cc(C(F)(F)F)ccc3nc2C(=O)O)cc1 | > 100 µM (inactive) | > 100 µM (inactive) | > 100 µM (inactive) | > 100 µM (inactive) | > 100 µM (inactive) | > 100 µM (inactive) | > 100 µM (inactive) | > 100 µM (inactive) | > 100 µM (inactive) | > 100 µM (inactive) | > 100 µM (inactive) | > 100 µM (inactive) |  | > 100 µM (inactive) | > 100 µM (inactive) | > 100 µM (inactive) | > 100 µM (inactive) | > 100 µM (inactive) | > 100 µM (inactive) |  |
| C=C1C(=O)O[C@H]2C1C[C@@H](OC(C)=O)/C(C)=C/CC[C@@]1(C)O[C@H]21 (stereo not given in full) |  | 6.53 µM (inactive) | 17.6 µM (inactive) | 0.817 µM (active) | 20.1 µM (inactive) | 26.1 µM (inactive) | 4.36 µM (inactive) | 15.1 µM (inactive) | 17.6 µM (inactive) | 17.2 µM (inactive) | 10.3 µM (inactive) | 21.8 µM (inactive) | 1.77 µM (inactive) | 3.7 µM (inactive) | 16 µM (inactive) | 26.9 µM (inactive) | 9.18 µM (inactive) | 6.12 µM (inactive) | 33.3 µM (inactive) | 2.09 µM (inactive) |
| C(=N\C12CC3CC(CC(C3)C1)C2)/C1CCCCC1 | > 100 µM (inactive) | > 100 µM (inactive) | > 100 µM (inactive) |  | > 100 µM (inactive) | > 100 µM (inactive) | > 100 µM (inactive) | > 100 µM (inactive) | > 100 µM (inactive) | > 100 µM (inactive) | > 100 µM (inactive) | > 100 µM (inactive) | > 100 µM (inactive) | > 100 µM (inactive) | > 100 µM (inactive) |  | > 100 µM (inactive) | > 100 µM (inactive) | > 100 µM (inactive) | > 100 µM (inactive) |
| COc1cc(C(c2cccc3ccccc23)N2C(=O)CCC2C(=O)O)cc(OC)c1OC (stereo not given) | > 100 µM (inactive) | > 100 µM (inactive) | > 100 µM (inactive) |  | > 100 µM (inactive) | > 100 µM (inactive) | > 100 µM (inactive) | > 100 µM (inactive) | > 100 µM (inactive) | > 100 µM (inactive) | > 100 µM (inactive) | > 100 µM (inactive) | > 100 µM (inactive) | > 100 µM (inactive) | > 100 µM (inactive) | > 100 µM (inactive) | > 100 µM (inactive) |  | > 100 µM (inactive) | > 100 µM (inactive) |
| COC(=O)C1C(O)C(C)C(=O)C(C)/C=C\C=C(C)C(=O)Nc2c(C)c(OC(C)=O)c3c(c2O)C(=O)C(C)=C2OCOC(=C23)C(C)=CC(C)(O)C(O)C(C)C1O (stereo not given) | 47.4 µM (inactive) | 31.1 µM (inactive) | 29 µM (inactive) | 24.9 µM (inactive) | 29.9 µM (inactive) | 37.4 µM (inactive) | 22.2 µM (inactive) | 17.5 µM (inactive) | > 100 µM (inactive) | 65.2 µM (inactive) | 27.4 µM (inactive) | 36.6 µM (inactive) | 20 µM (inactive) | 25.1 µM (inactive) | 50.5 µM (inactive) | > 100 µM (inactive) | 44.2 µM (inactive) |  | 32.7 µM (inactive) | 19.1 µM (inactive) |
| COc1ccc(C2OC2C(=O)C23CC4CC(CC(C4)C2)C3)cc1 (stereo not given) | > 100 µM (inactive) | 37.6 µM (inactive) | > 100 µM (inactive) | 19.1 µM (inactive) | 13.4 µM (inactive) | 13.6 µM (inactive) | > 100 µM (inactive) | 76 µM (inactive) | 31.1 µM (inactive) | > 100 µM (inactive) | 47.9 µM (inactive) | 96.8 µM (inactive) | 60.7 µM (inactive) |  | 19.1 µM (inactive) |  |  | > 100 µM (inactive) | 44.8 µM (inactive) | 27.2 µM (inactive) |
| O=C(C/N=C(\CN(c1ccccc1)c1ccccc1)Oc1c(Cl)cc(Cl)cc1Cl)N1c2ccccc2Sc2ccccc21 | > 100 µM (inactive) | 0.101 µM (active) | 30.4 µM (inactive) |  | 43.3 µM (inactive) | 50.9 µM (inactive) | 31 µM (inactive) | 40.2 µM (inactive) | > 100 µM (inactive) | > 100 µM (inactive) | 32.3 µM (inactive) | 38.1 µM (inactive) | 41.8 µM (inactive) | 34.8 µM (inactive) | 21.9 µM (inactive) | 29.6 µM (inactive) |  | 43.9 µM (inactive) | 56.4 µM (inactive) | > 10 µM (inactive) |
| CC1CC(=O)N(N(C)C)C(C#N)(C#N)C1(C#N)C#N (stereo not given) | 24.2 µM (inactive) | 10.6 µM (inactive) | 23.9 µM (inactive) | 17 µM (inactive) | 17.2 µM (inactive) | 23.2 µM (inactive) | 12.2 µM (inactive) | 20 µM (inactive) | 26.1 µM (inactive) | 23 µM (inactive) | 22.4 µM (inactive) | > 44.1 µM (inactive) | 0.638 µM (active) | 3 µM (inactive) | 7.6 µM (inactive) | 29.5 µM (inactive) | 2.3 µM (inactive) | 16 µM (inactive) |  | 2.81 µM (inactive) |
| Cc1cc(C)nc(NC(=O)COc2ccc(Cl)cc2)c1 | > 100 µM (inactive) | 71.8 µM (inactive) | > 100 µM (inactive) | > 100 µM (inactive) | > 100 µM (inactive) | > 100 µM (inactive) | > 100 µM (inactive) | > 100 µM (inactive) | > 100 µM (inactive) | > 100 µM (inactive) | 85.7 µM (inactive) | > 100 µM (inactive) |  | > 100 µM (inactive) | > 100 µM (inactive) | > 100 µM (inactive) | > 100 µM (inactive) | > 100 µM (inactive) | > 100 µM (inactive) | > 100 µM (inactive) |
| CCN(CCCl)c1cc(CN(C)C)cc(NC(=O)C23CCC(C(=O)Nc4cc(CN(C)C)cc(N(CC)CCCl)c4)(CC2)CC3)c1 | 0.443 µM (active) | 1.37 µM (inactive) | 1.5 µM (inactive) | 0.152 µM (active) | 0.229 µM (active) | 0.46 µM (active) | 1.71 µM (inactive) | 0.424 µM (active) | 0.372 µM (active) |  | 0.0255 µM (active) | 1.67 µM (inactive) | < 0.01 µM (active) | 1.49 µM (inactive) | 1.43 µM (inactive) | 0.372 µM (active) | 11.1 µM (inactive) | 8.49 µM (inactive) | 0.0687 µM (active) | 0.738 µM (active) |
| CC(=O)OC1C[C@@H](C)C2(C[C@H](O)c3ccoc3)C(=O)OC[C@]13C2CCC(O)C31CO1 (stereo not given in full) | > 100 µM (inactive) | > 100 µM (inactive) | > 100 µM (inactive) | > 100 µM (inactive) | > 100 µM (inactive) | > 100 µM (inactive) | > 100 µM (inactive) | > 100 µM (inactive) | > 100 µM (inactive) |  | > 100 µM (inactive) | > 100 µM (inactive) | > 100 µM (inactive) | > 100 µM (inactive) | > 100 µM (inactive) |  | > 100 µM (inactive) | > 100 µM (inactive) | > 100 µM (inactive) | > 100 µM (inactive) |
| O=C1c2c(ccc3c2CCCC3)CC12Cc1ccc3c(c1C2=O)CCCC3 | > 100 µM (inactive) | > 100 µM (inactive) | > 100 µM (inactive) | > 100 µM (inactive) | > 100 µM (inactive) | > 100 µM (inactive) | 28.2 µM (inactive) | > 100 µM (inactive) | > 100 µM (inactive) | > 100 µM (inactive) | > 100 µM (inactive) |  | > 100 µM (inactive) |  | 60.7 µM (inactive) | > 100 µM (inactive) |  | > 100 µM (inactive) | > 100 µM (inactive) | > 100 µM (inactive) |
| NC(=O)C1CCCNC1 (stereo not given) | > 100 µM (inactive) | > 100 µM (inactive) | > 100 µM (inactive) | > 100 µM (inactive) | > 100 µM (inactive) | > 100 µM (inactive) | > 100 µM (inactive) | > 100 µM (inactive) | > 100 µM (inactive) | > 100 µM (inactive) | > 100 µM (inactive) | > 100 µM (inactive) | > 100 µM (inactive) | > 100 µM (inactive) | > 100 µM (inactive) | > 100 µM (inactive) | > 100 µM (inactive) | > 100 µM (inactive) | > 100 µM (inactive) |  |
| N[C@H](C(=O)O)[C@@H]1CC(Cl)=NO1 [ACIVICIN] | 3.56 µM (inactive) | 7.62 µM (inactive) | 7.71 µM (inactive) | 1.46 µM (inactive) | 0.787 µM (active) | 3.62 µM (inactive) | 4.26 µM (inactive) | 4.07 µM (inactive) | 1.42 µM (inactive) | 2.54 µM (inactive) | 0.676 µM (active) |  | 1.19 µM (inactive) | 5.92 µM (inactive) | 33.2 µM (inactive) | 12.6 µM (inactive) | 2.52 µM (inactive) | 2.7 µM (inactive) | 0.452 µM (active) | 2.46 µM (inactive) |
